# Assay results reported in paper PMC9170106, “Pre-clinical evaluation of LASSBio-1491: From in vitro pharmacokinetic study to in vivo leishmanicidal activity” (PLoS ONE, 2022).
# Experiments:
# [1] = PAMPA-GIT permeability
# Description: The parallel artificial membrane permeability assay uses 96-well plate in a “sandwich” type system, where one plate overlaps the other (PAMPA). […] The lipid mixture that impregnates the PVDF filter has a different constitution for the permeability tests for the blood-brain barrier (Brain lipid from pig extract in dodecane) and gastro-intestinal tract (L-α soy phosphatidylcholine in dodecane). In the PAMPA BBB and TGI assays, the optical density values obtained in the reading at each selected wavelength, for each of the compounds were analyzed in comparison with the values of several controls. In the case of the BBB, these values were used to elaborate an equation and determine the permeability coefficient (Pe), using a previously elaborated spreadsheet, and, for the TGI, these values were used to determine the absorbed fraction (Fa%), both using the Excel® program.
# [2] = Microsomal metabolism; format: in vitro ADME; details: rat liver microsomes
# Experimental: The study of the microsomal metabolism of the compounds was evaluated by placing 1 mg/ml rat liver microsome in a microcentrifuge tube, in the presence of a NADPH generator system (1 mM NADP^+, 1.5 mM MgCl2, 3.5 mM glucose-6-phosphate and 0.5 U/mL glucose-6-phosphate dehydrogenase) and phosphate buffer pH 7.4 in sufficient quantity for 250 μL. After 15 minutes of pre-incubation at 37°C in a water bath, the enzymatic reactions were started by adding 2 μL of a stock solution 1 mM from one of the prototypes (500 μL 20% DMSO 80% CH3CN), so that a final concentration of 5 μM was reached (0.2% DMSO, 0.8% acetonitrile).
# Then, the samples were again incubated at 37°C under agitation for predetermined and fixed periods (0, 15, 30, 45 and 60 minutes). At the end of the incubation period 500 μL of cold methanol and 500 μL of cold acetonitrile containing 5 μM of methyl 1,1’biphenyl-4-carboxylate 5 μM (internal standard) were added to the wells to stop the reaction and the samples were homogenized and kept in an ice bath to accelerate protein precipitation. The mixture was centrifuged at 24500 x g for 15 minutes at 4°C (Universal centrifuge 320R Hettich®). Finally, the supernatant (1 mL) was filtrated and placed in vials to be analyzed by HPLC-PDA, Shimadzu—LC20AD, Kromasil C-18 column (4.6 mm x 250 mm, 5 μm), SPD M20A diode array detector, flow 1 mL/min, mobile phase acetonitrile: water 1:1 (v/v) for LASSBio-1491 and acetonitrile: water 60:40 (v/v) for LASSBio-1736, 20 minutes at 254 nm wavelength. Then, the microsomal half-life and clearance were calculated.
# [3] = system: spleen cells; experiment: Cytotoxicity against spleen cells (propidium iodide); details: Mus musculus, 24 h
# Experimental: To carry out the suspension preparation of spleen cells, BALB/c mice were euthanized, and an incision was made to remove the spleen. The spleens were macerated using the end of the plungers from a 1 mL syringe in a 70 μm strainer placed in a Petri dish containing RPMI medium. […] After incubation for 4 min at room temperature, the cells were washed with RPMI medium. Subsequently, samples from three animals were pooled and the cell suspension was passed through a 40 μm strainer. Cells were counted in a Neubauer chamber and splenocytes were plated at a concentration of 5 x 10^5 cells per well in a 96-well culture plate. […] Moreover, spleen cells were also cultured just with medium (free of compounds or vehicle) or with DMSO 0.1%. […] After, the propidium iodide incorporation was performed according to the instructions of the Propidium Iodide Kit (Sigma, Copenhagen, Denmark). The splenocytes were analyzed in a FACS Canto II flow cytometer. The data files were saved using FACS Diva software and data analysis was done using Flow Jo software. […] Data obtained from experiments were expressed as the mean ± standard error of the mean (S.E.M.) of spleen died cells and statistical differences between the treated and the vehicle groups of experiments were evaluated by ANOVA and Dunnett hoc tests.
# [4] = system: L. major promastigote LV39 substrain; experiment: In vitro activity against promastigotes, LV39; format: cell-based; details: Leishmania major
# Experimental: L. major promastigotes LV39 (MRHO/SU/59/P) were obtained from João […] Preto Medical School- USP. L. major IOC/[…] promastigotes (MHOM/SU/1973/5-ASKH) were obtained from Leishmania collection of the Oswaldo Cruz Institute-Fiocruz. L. major promastigotes LV39 (MRHO/SU/59/P) and L. major IOC/[…] (MHOM/SU/1973/5-ASKH) were grown in a Schneider's medium (Sigma-Aldrich, St. […] The determination of the leishmanicidal activity of LASSBio-1491 against L. major promastigotes was carried out according to the methodology described by […] and colleagues (1996). […] After 48h of incubation in a Biochemical Oxygen Demand (B.O.D.) incubator, the promastigotes were counted using a hemocytometer. The results obtained were expressed as the mean ± S.E.M. of the number of promastigotes from triplicate cultures of representative assays, with the data analyzed by ANOVA and Dunnett hoc tests, considering a significance level of p < 0.05.
# [5] = system: L. major amasitigote 5-ASKH substrain; experiment: In vitro activity against intramacrophage amastigotes, 5-ASKH; format: cell-based; details: Leishmania major
# Experimental: (§1) Briefly, female BALB/c mice (6 to 8 weeks old) received 1 mL sterile of 3% sodium thioglycolate by intraperitoneal route (i.p.) and were euthanized after 4 days. The intraperitoneal lavage was collected from the peritoneal cavity of mice using sterile PBS and cells were counted in a hemocytometer. Peritoneal adherent cells (macrophages) were plated at a concentration of 2 x 10^5 cells per well in 24-well culture plates containing glass coverslips. Subsequently, L. major promastigotes (harvested after the third passage) were added at a concentration of 2 x 10^6 parasites per well, aiming to infect the macrophages. […] After 24 hours in an incubator at 37 °C and 5% CO2, the coverslips were washed with PBS and stained with Giemsa-May Grünwald. The number of amastigotes in 100 macrophages was determined by counting using optical microscope (100x objective). Furthermore, the cell culture supernatant was also collected for nitrite measurement using the Griess reaction, an indirect way of determining the concentration of nitric oxide in the supernatant of infected macrophages from the experimental groups. The results obtained were expressed as the mean ± S.E.M. of the number of amastigotes or nitrite concentration from duplicate cultures of representative assays, with the data analyzed by ANOVA and Dunnett hoc tests, considering a significance level of p < 0.05. In addition, the linear regression analysis from the Kc values at employed concentrations was used to determine the IC50.
# [6] = system: L. major amastigote LV39 substrain; experiment: In vitro activity against intramacrophage amastigotes, LV39; format: cell-based; details: Leishmania major
# Experimental: as §1
smiles,measurement,setting,value
O=C(N/N=C/c1ccc([N+](=O)[O-])o1)NNC(=O)c1ccc(Cl)cc1 [LASSBio-1491],Classification,[1]; GIT-PAMPA,High (high intestinal permeability (70–100%))
same,Fa experimental,"[1]; GIT-PAMPA, absorbed fraction",78.8%
same,Papp,[1]; PAMPA,4.08 ×10⁻⁶ cm/s
same,half-life at 5 μM,"[2]; pH 7.4, with co-factor",2.68 h
same,microsomal CLint at 5 μM,"[2]; pH 7.4, with co-factor, Volume x (0,693/t1/2)",1.07 µL/min/mg
same,Metabolism rate with co-factor,[2]; with NADPH regenerating system,25.46%
same,Elimination rate constant (k),[2]; with co-factor,0.0043
same,Clapp,"[2]; with co-factor, scaled to liver and rat weight",0.166 mL/min/kg
same,IC50,[3],> 100 µM
same,IC50,"[4]; promastigote LV39, 48 h",7.7 ± 0.1 µM
same,Emax,"[4]; promastigote LV39, read-out: Maximum effect (% ± S.E.M.)",68.3 ± 0.2%
same,IC50,"[5]; Macrophage, amastigote 5-ASKH in macrophages, 24 h",7.3 ± 0.6 µM
same,Emax,"[5]; amastigote 5-ASKH, read-out: Maximum effect (% ± S.E.M.)",67.5 ± 4.8%
same,IC50,"[6]; Macrophage, amastigote LV39 in macrophages, 24 h",8.3 ± 0.3 µM
same,Emax,"[6]; amastigote LV39, read-out: Maximum effect (% ± S.E.M.)",60.2 ± 1.9%
